From US7504537B2, “Hydroxamic acid derivative and MMP inhibitor containing the same as active ingredient” (Dainippon Sumitomo Pharma Co., Ltd., priority 2001, dated 2009) come the findings set out here.

What all share (format): biochemical
The target of one test is T1, MMP-13 (Homo sapiens, UniProt P45452).
T1 construct: a fragment of 767 bp encoding original 84 amino acids of complete MMP-13 and encoding 164 amino acids; made in house; host or cells: E. coli BL21 (DE3), pET11a
As to the kind of experiment: Test 2 Test on MMP-13 inhibition activity (fluorogenic peptide substrate). To be noted: activated MMP-13, 37° C. The text has this:
Test 2 Test on MMP-13 Inhibition Activity
In order to subcloning C-terminal truncated cDNA in which the cDNA encodes procollagenase-3 (proMMP-13) (J. Biol. Chem., 269(24), 16766-16773 (1994)), two synthesized oligonucleotide primer fragments: • (5′-[…]-3′ and 5′-[…]-3′: In former the sequence for specific NdeI site (under line) including first methionine is included, and in latter terminal codon and BamHI site (under lined) are included.) were used with human cartilage cell cDNA library for PCR. Due to these primers and Pfu DNA polymelase (STRATAGENE) for PCR, there was obtained a fragment of 767 bp encoding original 84 amino acids of complete MMP-13 and encoding 164 amino acids. The said fragment was cut out with digestion by NdeI and BamHI, and the fragment was annealed to NdeI site and BamHI site of pET11a (STRATAGENE). The recombinant plasmid was transformed into E. coli BL21 (DE3) and the bacteria were cultivated. The crude cell extract was prepared according to the method of Biochemistry. The said extract was dialyzed with 20 mM Tris-HCl (pH 7.2)/5 mM CaCl2/0.02% NaN3 solution, treated with SP-sepharose HP column (1.6×10 cm, Amasham-Pharmacia biotec), and the eluting was carried out by liner gradient from 0 to 0.3 m of sodium chloride solution (50 ml) (partially purified proMMP-13 was eluted at about 0.2M.) The eluted fraction was dialyzed with 20 mM Tris-HCl (pH 7.9)/5 mM CaCl2/200 mM (NH4)2SO4/0.02% NaN3 solution, treated with phenylsepharose HP column (1.6×5 cm, Amersham-Pharmacia biotec), and the eluting was carried out by liner gradient from 0.2M to 0M sulfuric acid ammonium solution (purified proMMP-13 was eluted at about 50 mM.). The eluted fraction was concentrated by YM-5 ultrafilter membrane, and activated by 4-aminophenyl mercuric acetate. Activated MMP-13 was treated with gel filtration chromatography in accordance with the method of Biochemistry to be separated from propeptide. Inhibiting Test Method
Enzyme activity test was carried out by the method of G. Knight (FEBS Lett., 296(3), 263-266 (1992)).
A mixture of activated MMP-13 (20 nM, 10 μl), buffer solution (70 μl, pH 7.5 solution containing 100 mM Tris-HCl solution, 10 mM calcium chloride solution, 100 mM sodium chloride solution and 0.05% Briji-35 solution), MOCAc-Pro-Leu-Gly-Leu-A2pr(DNP)-Ala-Arg-NH2 in 0.1% DMSO solution (100 μM, 10 μl) and a test compound in DMSO solution was incubated for 1.5 hours at 37° C. The mixture was put on a 96 well-plate (100 μl/wel), and the plate was incubated at 37° C. The enzyme activity in the presence of the compound was measured based on fluorescence intensity (λex 320 nm, λem 405 nm), and IC50 was calculated.

Another test deals with T2, MMP-14 (MT1-MMP) (Homo sapiens, UniProt P50281).
T2 construct: purchased Biogenesis, supplied by Cosmobio (Nakarai Tesku)
As to the kind of experiment: Test 5 MMP-14 (MT1-MMP) inhibiting activity test. To be noted: human recombinant MT1-MMP, 37° C.; read-out: MMP-14 inhibition activity value. As to the method: Test 5 MMP-14 (MTI-MMP) Inhibiting Activity Test
Human recombinant MTI-MMP used the product prepared by Biogenesis and supplied by Cosmobio (Nakarai Tesku).
An assay buffer solution (70 μl, pH 7.5 solution containing 0.1M Tris-HCl solution, 0.1M calcium chloride solution, 10 mM sodium chloride solution and 0.05% Brij-35 solution), 0.1 w/w % a compound in DMSO (10 μl), MMP substrate solution (MOCAc-Pro-Leu-Gly-Leu-A2pr(DNP)-Ala-Arg-NH2 (Peptide Lab.) diluted with the assay buffer solution (50 μM, 10 μl)) and human recombinant MT1-MMP (0.4 pg/10 μl/well) were well agitated under stirring. The enzyme activity of the mixture was measured based on fluorescence intensity (λex 320 nm/λem 405 nm) by a fluorescence reader. After the mixture was incubated at 37° C. for 0.5 hour, the fluorescence intensity (λex 320 nm/λem 405 nm) was measured every hour, and IC50 was calculated.
The inhibition value was calculated by withdrawing average value of blank well from fluorescence mean value of well in which MT1-MMP was added. As the blank was used the mixed solution prepared by adding assay buffer (10 μl) instead of MT1-MMP solution.

The target of the next test is MMP-9 (Homo sapiens, UniProt P14780). Put plainly: Test 4 MMP-9 inhibiting activity test (biotin labeled gelatin). Particulars: activated human MMP-9, biotin labeled gelatin; read-out: MMP-9 inhibition activity value. As to the method:
Test 4 MMP-9 Inhibiting Activity Test
A mixture of buffer solution (190 μl; pH 7.5 solution containing 50 mM Tris-HCl solution, 0.5 m sodium chloride solution and 5 mM calcium chloride solution), human MMP-9 (10 μl) and trypsin solution (20 μl; trypsin 3 mg in activated buffer (5 ml)) was incubated at 37° C. for 10 minutes. Thereto was added aprotinine solution (20 μl; aprotinine (3 mg) in buffer (5 ml)) and the mixture was incubated at 37° C. for 10 minutes, followed by addition of buffer (2 ml). The mixture was preserved under cooling with ice until use.
A mixture of DMSO solution (2 μl) containing definite concentration of the compound, biotin labeled gelatin (188 μl) and activated MMP-9 solution (10 μl) was put on a 96 well-assay plate (protein nonabsorbance type), well agitated, and incubated at 37° C. for 1 hour. This solution was transferred to Streptavidin-coating plate, and agitated at 15° C. to 30° C. for 30 minutes. And then the solution was washed with TTC buffer solution (200 μl) three times. Thereto was added Streptavidin-POD (200 μl) and the mixture was agitated at 15° C. to 25° C. for 60 minutes, followed by washing with TTC buffer (200 μl) three times. Then, ABTS solution (200 μl) was added thereto and after standing at room temperature for 40 minutes, furuorescence intensity was measured at 405 nm and IC50 was calculated.
In case of the above test, DMSO (2 μl) was used as a control instead of a sample solution. In the case of a blank, DMSO (2 μl) instead of the sample solution and the solution (10 μl) prepared in the same manner as preparation of […] but without adding 1.2 Uhuman MMP-9, instead of activated MMP-9 solution (10 μl), were used.

Chain of MMP-9 (P14780 107-707 limits assumed): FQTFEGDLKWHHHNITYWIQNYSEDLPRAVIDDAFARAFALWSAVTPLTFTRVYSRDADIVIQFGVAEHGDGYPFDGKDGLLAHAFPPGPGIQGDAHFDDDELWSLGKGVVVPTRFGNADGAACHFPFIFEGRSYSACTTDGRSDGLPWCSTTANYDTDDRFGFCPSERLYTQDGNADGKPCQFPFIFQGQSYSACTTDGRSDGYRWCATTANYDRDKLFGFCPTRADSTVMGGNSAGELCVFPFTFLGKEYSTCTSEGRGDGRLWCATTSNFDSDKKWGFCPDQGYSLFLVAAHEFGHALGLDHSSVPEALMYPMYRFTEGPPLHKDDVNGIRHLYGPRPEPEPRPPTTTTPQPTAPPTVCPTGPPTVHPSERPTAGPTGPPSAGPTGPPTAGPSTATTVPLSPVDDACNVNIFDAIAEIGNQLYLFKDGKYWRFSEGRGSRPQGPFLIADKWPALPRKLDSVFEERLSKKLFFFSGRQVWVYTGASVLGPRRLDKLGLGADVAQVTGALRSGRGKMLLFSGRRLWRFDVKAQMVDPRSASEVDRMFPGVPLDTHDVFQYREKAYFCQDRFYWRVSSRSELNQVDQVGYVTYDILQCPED

Take `CC(C)(C(=O)NO)N(Cc1ccccc1)S(=O)(=O)c1ccc(Oc2ccc(S(C)(=O)=O)cc2)cc1` [Example 10, N′^2′-Benzyl-N′^1′-hydroxy-2-methyl-N′^2′-({4-[4-(methylsulfonyl)phenoxy]phenyl}sulfonyl)alaninamide]: the IC50 is 34.4 nM on MMP-13, greater than 5000 nM on MMP-14 (MT1-MMP) and 6800 nM on MMP-9.

Consider `CS(=O)(=O)c1ccc(Oc2ccc(S(=O)(=O)N(CC(=O)NO)Cc3ccncc3)cc2)cc1` [Example 42, N′^1′-Hydroxy-N′^2′-({4-[4-(methylsulfonyl)phenoxy]phenyl}sulfonyl)-N′^2′-(4-pyridinylmethyl)glycinamide], for which the IC50 against MMP-13 is 4.02 nM; on MMP-14 (MT1-MMP), greater than 5000 nM; on MMP-9, 4300 nM.

For the compound `CS(=O)(=O)c1ccc(Oc2ccc(S(=O)(=O)N(CCC(=O)O)CC(=O)NO)cc2)cc1` [Example 36, N-[2-(Hydroxyamino)-2-oxoethyl]-N-({4-[4-(methylsulfonyl)phenoxy]phenyl}sulfonyl)-β-alanine], the IC50 is 3.81 nM against MMP-13, 938 nM at MMP-14 (MT1-MMP) and greater than 100 nM at MMP-9.

Consider `CS(=O)(=O)c1ccc(Oc2ccc(S(=O)(=O)N(Cc3ccccc3)C3(C(=O)NO)CCOCC3)cc2)cc1` [Example 12, 4-[Benzyl({4-[4-(methylsulfonyl)phenoxy]phenyl}sulfonyl)amino]-N-hydroxytetrahydoro-2H-pyrane-4-carboxamide], for which the IC50 was 4 nM against MMP-13, 893 nM at MMP-14 (MT1-MMP) and less than 100 nM at MMP-9.

Take `CCOCCN(C1(C(=O)NO)CCCC1)S(=O)(=O)c1ccc(Oc2ccc(S(C)(=O)=O)cc2)cc1` [Example 45, 1-[(2-Ethoxyethyl)({4-[4-(methylsulfonyl)phenoxy]phenyl}sulfonyl)amino]-N-hydroxycyclopentanecarboxamide]: the IC50 on MMP-13 is 0.6 nM; at MMP-14 (MT1-MMP), greater than 1500 nM; at MMP-9, greater than 100 nM.

`CS(=O)(=O)c1ccc(Oc2ccc(S(=O)(=O)NC3(C(=O)NO)CCC3)cc2)cc1` [Example 48, N-Hydroxy-1-[({4-[4-(methylsulfonyl)phenoxy]phenyl}sulfonyl)amino]cyclobutanecarboxamide]: the values for the IC50 at MMP-13, on MMP-14 (MT1-MMP) and at MMP-9 were 6.9 nM, greater than 1500 nM and greater than 100 nM, respectively.

On to `CS(=O)(=O)c1ccc(Oc2ccc(S(=O)(=O)N(CC(=O)O)CC(=O)NO)cc2)cc1` [Example 24, N-{[(Hydroxyamino)carbonyl]methyl}-N-({4-[4-(methylsulfonyl)phenoxy]phenyl}sulfonyl)-glycine], for which the IC50 against MMP-13 is 16.3 nM; at MMP-14 (MT1-MMP), greater than 5000 nM; on MMP-9, greater than 10000 nM.

Consider `COCCN(CC(=O)NO)S(=O)(=O)c1ccc(Oc2ccc(S(C)(=O)=O)cc2)cc1` [Example 44, N^1-Hydroxy-N^2-(2-methoxyethyl)-N^2-({4-[4-(methylsulfonyl)phenoxy]phenyl}sulfonyl)glycinamide], for which the results for the IC50 against MMP-13, at MMP-14 (MT1-MMP) and at MMP-9 were 0.5 nM, 343 nM and greater than 10000 nM, respectively.

As to `COCCCN(CC(=O)NO)S(=O)(=O)c1ccc(Oc2ccc(S(C)(=O)=O)cc2)cc1` [Example 43, N^1-Hydroxy-N^2-(3-methoxypropyl)-N^2-({4-[4-(methylsulfonyl)phenoxy]phenyl}sulfonyl)glycinamide], the IC50 against MMP-13 was less than 0.5 nM; at MMP-14 (MT1-MMP), 82 nM; on MMP-9, 600 nM.

`CCOC(=O)CCN(C1(C(=O)NO)CCCC1)S(=O)(=O)c1ccc(Oc2ccc(S(C)(=O)=O)cc2)cc1` [Example 26, Ethyl N-{1-[(hydroxyamino)carbonyl]cyclopentyl}-N-({4-[4-(methylsulfonyl)phenoxy]phenyl}sulfonyl)-β-alaninate]: the IC50 against MMP-13 is 1.9 nM; on MMP-14 (MT1-MMP), 395 nM; at MMP-9, greater than 100 nM.

In the case of `CS(=O)(=O)c1ccc(Oc2ccc(S(=O)(=O)NCC(=O)NO)cc2)cc1` [Example 13, N′^1′-Hydroxy-N′^2′-({4-[4-(methylsulfonyl)phenoxy]phenyl}sulfonyl)glycinamide], the IC50 on MMP-13 was 10.8 nM; on MMP-14 (MT1-MMP) it was greater than 5000 nM; at MMP-9, 4700 nM.

For `CCOC(=O)CN(C1(C(=O)NO)CCC1)S(=O)(=O)c1ccc(Oc2ccc(S(C)(=O)=O)cc2)cc1` [Example 46, Ethyl N-{1-[(hydroxyamino)carbonyl]cyclobutyl}-N-({4-[4-(methylsulfonyl)phenoxy]phenyl}sulfonyl)glycinate], the values for the IC50 at MMP-13, on MMP-14 (MT1-MMP) and at MMP-9 were 10.5 nM, greater than 1500 nM and greater than 100 nM, respectively.

Take `CCOC(=O)CN(C1(C(=O)NO)CCCC1)S(=O)(=O)c1ccc(Oc2ccc(S(C)(=O)=O)cc2)cc1` [Example 23, Ethyl N-{1-[(hydroxyamino)carbonyl]cyclopentyl}-N-({4-[4-(methylsulfonyl)phenoxy]phenyl}sulfonyl)glycinate]: the IC50 at MMP-13 was 4.1 nM; on MMP-14 (MT1-MMP), greater than 5000 nM; at MMP-9, 2300 nM.

For the compound `CC(C)CN(C1(C(=O)NO)CCOCC1)S(=O)(=O)c1ccc(Oc2ccc(S(C)(=O)=O)cc2)cc1` [Example 15, N-Hydroxy-4-[isobutyl({4-[4-(methylsulfonyl)phenoxy]phenyl}sulfonyl)amino]tetrahydro-2H-pyrane-4-carboxamide], the IC50 at MMP-13 is 24.6 nM; at MMP-14 (MT1-MMP), greater than 5000 nM; on MMP-9 it was 700 nM.

`CCOC(=O)CCN(C1(C(=O)NO)CCOCC1)S(=O)(=O)c1ccc(Oc2ccc(S(C)(=O)=O)cc2)cc1` [Example 31, Ethyl N-{4-[(hydroxyamino)carbonyl]tetrahydro-2H-pyran-4-yl}-N-({4-[4-(methylsulfonyl)phenoxy]phenyl}sulfonyl)-β-alaninate]: the IC50 is 11.2 nM at MMP-13, greater than 5000 nM on MMP-14 (MT1-MMP) and 4900 nM at MMP-9.
